Like-named read-outs stand apart in the source and are kept apart here.
Tests used:
[1] = test system: Escherichia coli ATCC 25922; assay: Intrahemocoelic G. mellonella infection model; assay type: in vivo, Galleria mellonella; conditions: single 10-mg/kg dose 1 h after infection
Description: The antimicrobial activities of DQC, CM2, and its analogues Quino-bola, Penta-bola, Hepta-bola, and Octa-bola against Escherichia coli ATCC 25922 were tested in Galleria mellonella larvae. All assays were performed on two separate occasions using a group size of 10 larvae; the larvae were kept in separate petri dishes and in a static incubator at 37°C during the period of the experiment. A suspension of E. coli ATCC 25922 was prepared by transferring two colonies of E. coli ATCC 25922 from a fresh agar plate into PBS and adjusting the absorbance to a McFarland 0.5 standard. The number of CFU per milliliter of this suspension was determined and corresponded to 1 × 10^8 CFU/mL. Larvae were injected beneath the tegument with 10 μL of a 1 × 10^7-CFU/mL bacteria suspension, corresponding to 1 × 10^5 CFU per larva. A 50-μL Hamilton syringe with a G27 needle was used for the injection. […] Ten microliters of stock solution was injected into each larva 1 h after infection (10 mg/kg). Levofloxacin (LVX; 50 μg/mL = 2 mg/kg) and PBS were used as positive and negative controls, respectively. A noninfected PBS injection was included to control for the effects of injection. Survival was monitored over a period of 70 to 72 h. Changes in G. mellonella survival were analyzed by the log rank (Mantel-Cox) method and plotted as Kaplan-Meier survival curves using GraphPad Prism version 7.

C. albicans 3179 = assay: Broth microdilution MIC; assay type: cell-based, Candida albicans; conditions: C. albicans 3179
[2] = test system: VS Enterococcus faecalis NCTC 775; assay: Broth microdilution MIC; assay type: cell-based
[3] = test system: Gram-negative bacteria (avg); assay: Selectivity index (toxicity/potency); assay type: cell-based; conditions: ratio of average toxicity (HEK293 and HeLa) to average potency
Description: (§1) TABLE 3 Selectivity indices of bolaamphiphiles | column: Selectivity of^a: / 12-bis-THA Cl2; Selectivity of^a: / Dequalinium; Selectivity of^a: / Quino-bola; Selectivity of^a: / Penta-bola; Selectivity of^a: / Hepta-bola; Selectivity of^a: / Octa-bola; Selectivity of^a: / Octa-C10; Selectivity of^a: / Octa-C8; Selectivity of^a: / Octa-C6

Fungi (avg) = assay: Selectivity index (toxicity/potency); assay type: cell-based, Candida spp.; conditions: ratio of average toxicity (HEK293 and HeLa) to average potency
Description: as §1

[4] = test system: Acinetobacter baumannii ATCC 17978; assay: Broth microdilution MIC; assay type: cell-based
HeLa = assay: In vitro toxicity for cell line; assay type: cell-based, human; conditions: average ± standard error from 3 independent repeats
Description: as §1, with “2 Toxicity” for “3 Selectivity indices”, “bolaamphiphiles for two cell lines^a” for “bolaamphiphiles”, “Toxicity (EC50 [μg/ml]) of:” for “Selectivity of^a:”

HEK293 = assay: In vitro toxicity for cell line; assay type: cell-based, human; conditions: HEK293, average ± standard error from 3 independent repeats
Description: as §1, with “2 Toxicity” for “3 Selectivity indices”, “bolaamphiphiles for two cell lines^a” for “bolaamphiphiles”, “Toxicity (EC50 [μg/ml]) of:” for “Selectivity of^a:”

P. aeruginosa PAO1 = assay: Checkerboard synergy assay; assay type: cell-based, Pseudomonas aeruginosa
Klebsiella pneumoniae M6 = assay: Broth microdilution MIC; assay type: cell-based
[5] = test system: EMR Staphylococcus aureus 15 NCTC 13616; assay: Broth microdilution MIC; assay type: cell-based
[6] = test system: VR Enterococcus faecium NCTC 12204; assay: Broth microdilution MIC; assay type: cell-based
C. glabrata 8018 = assay: Broth microdilution MIC; assay type: cell-based; conditions: C. glabrata 8018
C. tropicalis 8760 = assay: Broth microdilution MIC; assay type: cell-based; conditions: C. tropicalis 8760
[7] = test system: Gram-positive bacteria (avg); assay: Selectivity index (toxicity/potency); assay type: cell-based; conditions: ratio of average toxicity (HEK293 and HeLa) to average potency
C. auris temp probe = assay: Broth microdilution MIC; assay type: cell-based, Candida auris; conditions: C. auris temp probe
[8] = test system: Acinetobacter baumannii AYE; assay: Broth microdilution MIC; assay type: cell-based
[9] = test system: Escherichia coli NCTC 12923; assay: Broth microdilution MIC; assay type: cell-based
C. albicans 3281 = assay: Broth microdilution MIC; assay type: cell-based, Candida albicans; conditions: C. albicans 3281
M. smegmatis mc^2 155 = assay: Broth microdilution MIC (Middlebrook 7H9); assay type: cell-based, Mycobacterium smegmatis
[10] = test system: EMR Staphylococcus aureus 16 NCTC 13277; assay: Broth microdilution MIC; assay type: cell-based
C. parapsilosis 3209 = assay: Broth microdilution MIC; assay type: cell-based
C. parapsilosis = assay: Broth microdilution MIC; assay type: cell-based
[11] = test system: Pseudomonas aeruginosa PAO1; assay: Broth microdilution MIC; assay type: cell-based
C. krusei 3876 = assay: Broth microdilution MIC; assay type: cell-based
[12] = test system: Klebsiella pneumoniae NCTC 13368; assay: Broth microdilution MIC; assay type: cell-based
Dynamic light scattering = assay type: physicochemical; conditions: 0.36 mM in water
Description: Stock solutions of bolalipids were prepared by dispersing the powder in ultrapure water, then stirring vigorously by vortexing, and sonicating in a 40°C bath sonicator for 20 min. The concentration of each stock solution corresponds to the highest solubility achieved in water for each bolalipid, using the method described above. DLS experiments were performed on a Malvern Zetasizer Nano (Malvern Instruments, Worcestershire, UK) in back-scattering mode at 20°C. There were three independent measurements of each sample and 12 runs for each measurement, with 10 s taken for each run. The attenuator index and measurement position were automatically adjusted. Fifty microliters of each sample was transferred into polystyrene semi-microcuvettes for determination of UV and visible wavelengths (Sarstedt).

M. tuberculosis Bleupan = assay: microbe, parasite or virus in culture; assay type: cell-based, Mycobacterium tuberculosis
[13] = Candida albicans, read-out: MIC
[14] = Homo sapiens, read-out: Toxicity (EC50)
[15] = Lodderomyces parapsilosis, read-out: MIC

Cc1c(N)c2ccccc2[n+](CCCCCCCCCCCC[n+]2c(C)c(C)c(N)c3ccccc32)c1C [Quino-bola]
protection (survival over 72 h) [1]: neither Quino-bola nor Penta-bola offered significant protection | MIC (C. albicans 3179; [13]): 0.25 µg/mL | MIC ([2]; NCTC775, read-out: MIC): 4 µg/mL | Selectivity index [3]: 0.55 | Selectivity index (Fungi (avg)): 31.8 | MIC ([4]; ATCC17978, read-out: MIC): 16 µg/mL | EC50 (HeLa; [14]): 13.9 ± 9.5 µg/mL | EC50 (HEK293; [14]): 13.6 ± 0.6 µg/mL | MIC (P. aeruginosa PAO1; Pseudomonas aeruginosa, read-out: MIC Alone Bolalipid): > 32 µg/mL | MIC (Klebsiella pneumoniae M6; read-out: MIC): 32 µg/mL | MIC ([5]; Staphylococcus aureus, NCTC13616): 1 µg/mL | MIC ([6]; Enterococcus faecium, NCTC12204): 2 µg/mL | MIC (C. glabrata 8018; Nakaseomyces glabratus, read-out: MIC): 0.25 µg/mL | MIC (C. tropicalis 8760; Candida tropicalis, read-out: MIC): 0.25 µg/mL | Selectivity index [7]: 8.94 | MIC (C. auris temp probe; Candidozyma auris, read-out: MIC): 2 µg/mL | MIC ([8]; Acinetobacter baumannii): 32 µg/mL | MIC ([9]; NCTC12923, read-out: MIC): 8 to 16 µg/mL | MIC (C. albicans 3281; [13]): 0.25 µg/mL | MIC (M. smegmatis mc^2 155; Mycolicibacterium smegmatis, MC^2155, read-out: MIC): 0.49 µg/mL | MIC ([10]; Staphylococcus aureus, NCTC13277): 1 µg/mL | MIC (C. parapsilosis 3209; [15]): 0.5 to 2 µg/mL | MIC (C. parapsilosis; [15]): 2 µg/mL | MIC ([11]; read-out: MIC): > 32 µg/mL | MIC (C. krusei 3876; Pichia kudriavzevii, read-out: MIC): 1 µg/mL | MIC [12]: 32 µg/mL

Nc1c2c([n+](CCCCCCCCCCCC[n+]3c4c(c(N)c5ccccc53)CCCC4)c3ccccc13)CCCC2 [12-bis-THA Cl2, 12,12′-(Dodecane-1,12-diyl)-bis-(9-amino-1,2,3,4-tetrahydroacridinium) chloride]
protection (survival over 72 h) [1]: survival was somewhat better than that obtained in the absence of treatment | MIC (C. albicans 3179): 0.25 µg/mL | MIC [2]: 2 µg/mL | MIC [4]: 16 µg/mL | Toxicity (EC50) (HeLa): 7.1 ± 2.0 µg/mL | Toxicity (EC50) (HEK293): 5.5 ± 2.0 µg/mL | MIC alone Bolalipid (P. aeruginosa PAO1): 32 µg/mL | MIC (Klebsiella pneumoniae M6): 16 µg/mL | MIC ([5]; EMR Staphylococcus aureus 15 NCTC 13616): 0.25 µg/mL | nanoparticle formation (DLS) (Dynamic light scattering): to some extent | MIC ([6]; VR Enterococcus faecium NCTC 12204): 0.5 µg/mL | MIC (C. glabrata 8018): 0.25 µg/mL | MIC (C. tropicalis 8760): 0.25 µg/mL | MIC (C. auris temp probe): 2 µg/mL | MIC ([8]; Acinetobacter baumannii AYE): 16 µg/mL | MIC [9]: 4 µg/mL | MIC (M. tuberculosis Bleupan): 0.87 µg/mL | MIC (C. albicans 3281): 0.25 µg/mL | MIC (M. smegmatis mc^2 155): 0.28 µg/mL | MIC ([10]; EMR Staphylococcus aureus 16 NCTC 13277): 0.125 µg/mL | MIC (C. parapsilosis 3209): 1 µg/mL | MIC (C. parapsilosis): 2 µg/mL | MIC [11]: 32 µg/mL | MIC (C. krusei 3876): 0.5 µg/mL | MIC [12]: 32 µg/mL

Reference: article PMC9942557, “Bolaamphiphile Analogues of 12-bis-THA Cl2 Are Potent Antimicrobial Therapeutics with Distinct Mechanisms of Action against Bacterial, Mycobacterial, and Fungal Pathogens” (mSphere, 2022)
